“And” between values parts separate entries of the source, which are not always exact repeats. Equal entries are not always repeated. The source made the active and inactive calls.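 How the source made its calls: active means EC50 no more than a set limit of log units above the highest dose; inactive means the rest.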

The assay concerns the target S. pyogenes SKKanGAS, kanamycin survival, BacTiterGlo, 6 h. The experiment in a line: S. pyogenes SKKanGAS kanamycin growth inhibitors – SKKanGAS strain, luminescence, dose confirmation, streptokinase promoter inhibitor project, dose response (AID 1902).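 Further: lower survival reflects blocked streptokinase promoter driving kanamycin resistance gene.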
As usually defined, the EC50 is the concentration needed to bring the measured effect to its halfway point. For `Cc1nc2ccccc2c(=O)n1/N=C/c1cc(Br)cc(Br)c1O`, the EC50 is 3.04 µM.

`O=C(NC(NC(=S)Nc1ccc(Cl)cc1Cl)C(Cl)(Cl)Cl)c1cccc([N+](=O)[O-])c1` (stereo unspecified): the EC50 is 0.99 µM.

As for `CCc1ccc(-c2cc(C(=O)N/N=C/c3c[nH]c4ccccc34)[nH]n2)cc1`, the EC50 is 5.96 µM.

Regarding `Cc1oc2c(c1C(=O)NCc1cccnc1)C(=O)c1ccccc1C2=O`, the EC50 was 0.882 µM.

Consider `Cc1cnn(-c2nc(-c3ccccc3)cc(-c3ccccc3)n2)c1`, for which the EC50 was 4.51 µM.

As to `COc1ccc(C(=O)Nc2nnc(-c3ccccc3)o2)cc1OC`, the concentration giving a half-maximal response (EC50) is 5.56 µM.

As to `COc1ccccc1-c1nnc(Nc2nc3c(OC)cccc3s2)o1`, the half-maximal effective concentration (EC50) was 0.803 µM.

With `COc1cccc(C(=O)OCC(=O)Nc2nnc(-c3ccccc3)o2)c1`, the EC50 is 8.68 µM.

As to `CCC[N+]1(CC#CC2(O)CCCCC2)CCOCC1`, the EC50 was > 15 µM (inactive).

Take `CCCCCCCCCCCCCCCCn1cc[n+](C)c1`: the concentration for a half-maximal effect (EC50) is 1.9 µM and 2.05 µM.

For `Cc1c(-c2cccc(Cl)c2)nc2ccccc2c1C(=O)OC/C(O)=C(\C#N)c1nc2ccccc2[nH]1`, the half-maximal effective concentration (EC50) was 1.9 µM.

Consider `CC(C)=CCc1cc([C@@H]2COc3c(ccc4c3C=CC(C)(C)O4)C2)c(O)cc1O`, for which the EC50 was 2.94 µM.

With `COc1ccc(C(=O)NC(=S)NNC(=O)c2ccco2)cc1`, the EC50 is 4.48 µM.

With `Clc1ccc(C2=CSC3=Nc4cccc5cccc(c45)N23)cc1`, the EC50 was 7.43 µM.

In the case of `CCN1CCN(C(=O)N[C@@H](C(=O)N[C@@H]2C(=O)N3[C@@H]2SC(C)(C)[C@@H]3C(=O)O)c2ccccc2)C(=O)C1=O`, the concentration for a half-maximal effect (EC50) was 0.285 µM.

For `CC1=NN(C(N)=S)C(=O)C1N=Nc1c(C)cc(C)cc1C` (stereo unspecified), the 50% effective concentration (EC50) was 5.77 µM.

As to `COc1cc(Br)cc(/C=N/NC(=O)Cc2ccc(C(F)(F)F)cc2[N+](=O)[O-])c1O`, the EC50 is 1.1 µM.

For the compound `CC[C@H]1OC(=O)[C@H](C)[C@@H](O[C@H]2C[C@@](C)(OC)[C@@H](O)[C@H](C)O2)[C@H](C)[C@@H](O[C@@H]2O[C@H](C)C[C@H](N(C)C)[C@H]2O)[C@](C)(OC)C[C@@H](C)C(=O)[C@H](C)[C@@H](O)[C@]1(C)O`, the EC50 is under 0.06 µM.

`CCCCC(=O)NC(=S)NNC(=O)CCc1ccccc1`: the EC50 was 5 µM.

Consider `Cc1nn(-c2ccccc2)c2sc(-c3n[nH]c(=S)o3)cc12`, for which the EC50 is 3.99 µM.

As for `O=C(COC(=O)Cc1cn2ccsc2n1)Nc1nc2ccccc2s1`, the half-maximal effective concentration (EC50) is 2.51 µM.

`C=CCSc1nc2ccccc2c(=O)n1Cc1ccccc1`: the EC50 is 15.3 µM.

As to `CC1(C)CC(=O)C(C2C3=C(CC(C)(C)CC3=O)Oc3c(Br)cc(Br)cc32)=C(O)C1` (stereo unspecified), the EC50 is 4.06 µM.

As for `Cc1ccccc1-n1nc(C(=O)c2cccs2)cc(-c2nc3ccccc3[nH]2)c1=N`, the concentration for a half-maximal effect (EC50) was 1.59 µM.

In the case of `O=[N+]([O-])c1ccc(Cl)cc1Sc1nc2ccccc2o1`, the 50% effective concentration (EC50) is 1.67 µM.

Regarding `COc1ccc(OC)c(N=Cc2c(O)n(Cc3ccccc3)c(=S)[nH]c2=O)c1`, the EC50 is > 15 µM (inactive).

Take `CCCc1sc(N/N=C/c2ccccn2)nc1-c1ccc(F)cc1`: the concentration giving a half-maximal response (EC50) is 9.33 µM.

As to `CCn1nc(C)cc1-c1nnc(Sc2ncc([N+](=O)[O-])s2)n1C`, the EC50 is 6.51 µM.

`CN1C(=O)/C(=C/c2ccccc2Cl)Sc2ccc(C(=O)NCc3cccnc3)cc21`: the EC50 is 4.69 µM.

Turning to `COc1ccc(C(=O)NNC(=S)NC(=O)c2ccc(F)cc2)cc1Br`, the EC50 is 0.127 µM.

On to `CC(C)C[C@H](NC(=O)c1nc[nH]c1C(=O)N[C@@H](CC(C)C)C(=O)OC(C)(C)C)C(=O)OCc1ccccc1`, for which the EC50 was 1.45 µM.

`CC(C)C[C@H](NC(=O)c1[nH]cnc1C(=O)N[C@H](C)c1ccccc1)C(=O)OC(C)(C)C`: the EC50 was 6.02 µM.

As for `O=C1CCCc2oc3c(cc(NS(=O)(=O)c4ccc5c6c(cccc46)C(=O)N5)c4ccccc43)c21`, the EC50 is 4.02 µM.

As for `c1ccc(Oc2nc(-c3ccccn3)nc3ccccc23)cc1`, the EC50 was 9.41 µM.

`O=C(NC(=S)NNC(=O)c1cccs1)c1ccccc1`: the EC50 was 5.73 µM.

As to `O=C(NNC(=S)NC(=O)c1cccnc1)c1ccc(Cl)cc1`, the EC50 is 2.64 µM.
